Results as given in patent publication US20250332154A1, “USE OF NAPHTHOQUINE PHOSPHATE IN PREPARATION OF A MEDICAMENT FOR TREATING AUTOIMMUNE DISEASES” (SHANGHAI PHARMACEUTICALS INDUSTRY CO., LTD, priority 2022, published 2025).

Tests used:
Type in all cases: in vivo, mouse
[1] = system: collagen-specific antibodies; assay: Anti-CII antibody levels in serum of arthritic mice (ELISA); conditions: intragastric, FIG. 4
Experimental: Normal group, model group, positive medicament (1 mg/kg dexamethasone) group, naphthoquine phosphate (25, 50, 100 mg/kg) groups, hydroxychloroquine sulfate (100 mg/kg) group.
10 mg of Type II Collagen (CII) was swollen in 2.5 ml of 0.1 mol/L glacial acetic acid to prepare a 4 mg/ml CII solution. This solution was fully emulsified with an equal volume of CFA, and injected subcutaneously (50 μl) at the base of the tail of mice. After 21 days, 4 mg/ml CII solution was fully emulsified with an equal volume of IFA. This mixture was injected subcutaneously (50 μL) at the base of the tail of mice to boost the immune response.
50 μl CII solution (final concentration: 50 μg/ml) was added to each well of a 96-well ELISA plate for coating overnight. The plate was washed 4 times with 200 μl washing solution (1L PBS+500 μl Tween 20) per well. 100 μl 1% BSA was added to each well to block for 1 hour. The plate was then washed 4 times with 200 μl washing solution per well. 50 μl diluted serum samples from each group of mice were added to each well and incubated for 2 hours. The plate was washed 4 times with 200 μl washing solution per well. Horseradish Peroxidase (HRP)-conjugated IgG secondary antibody was added and incubated for 1 hour. […] Absorbance values at 450 nm/570 nm were read by a microplate reader (Spectra Max 190, Molecular Devices).

[2] = system: purified splenic B cells of arthritic mice; assay: TLRs-L-induced activation of purified splenic B cells from treated arthritic mice; conditions: intragastric 50, 100 mg/kg, FIG. 6
Experimental: Normal group, model group, positive medicament (1 mg/kg methotrexate) group, naphthoquine phosphate (50, 100 mg/kg) group, hydroxychloroquine sulfate (100 mg/kg) group.
Same as those described in Example 5.
At the end of the experiment, spleens of mice in each group were collected, and splenic B cells were purified as described in Example 4. Different TLRs-L were used for stimulation. ^3H-TDR incorporation method was used to detect proliferation, ELISA method was used to detect the levels of IL-6 and antibody secretion, and flow cytometry was used to detect the expressions of CD80, CD86, and CD69.
Suspensions of purified mouse B cells from each group were inoculated into a 96-well plate at 4×10^5/well, and the stimulant TLR4-L (final concentration: 10 μg/ml), TLR7-L (final concentration: 5 μg/ml) or TLR9-L (final concentration: 1 μM) was added. […] 5 ml scintillation fluid was added, and the values of radioactive counts per minute were read on a Beta counter (2450 Microplate Counter, PerkinElmer).
Suspensions of purified mouse B cells from each group were inoculated into a 96-well plate at 4×10^5/well, and the stimulant TLR4-L (final concentration: 10 μg/ml), TLR7-L (final concentration: 5 μg/ml) or TLR9-L (final concentration: 1 μM) was added. […] After the end of the culture, the cell culture supernatants were collected, and the level of IL-6 was measured by ELISA. […]

anti-dsDNA antibodies = assay: Anti-double-stranded DNA antibodies in serum of MRL/lpr mice (ELISA); conditions: intragastric 25, 50 mg/kg, FIG. 8
Experimental: Normal group, model group, positive medicament (1 mg/kg prednisone) group, naphthoquine phosphate (25, 50 mg/kg) group, hydroxychloroquine sulfate (100 mg/kg) group.
50 μl double-stranded DNA solution (final concentration: 50 μg/ml) was added to each well of a 96-well ELISA plate for coating overnight. The plate was washed 4 times with 200 μl washing solution (1L PBS+500 μl Tween 20) per well. 100 μl 1% BSA was added to each well and blocked for 1 hour. The plate was washed 4 times with 200 μl washing solution per well. 50 μl diluted mouse serum samples of each group were added to each well and incubated for 2 hours. The plate was washed 4 times with 200 μl washing solution per well. Horseradish peroxidase (HRP)-conjugated IgG (H+L) secondary antibodies were added and incubated for 1 hour. The plate was washed 5 times with 200 μl washing solution per well. 50 μl tetramethylbenzidine (TMB) substrate was added, and 30 μl 1M sulfuric acid solution was added to terminate color development based on the condition of color development. Absorbance values at 450 nm/570 nm were read by a microplate reader (Spectra Max 190, Molecular Devices).
At the end of the experiment, eyeballs were removed to collect blood. ELISA method was used to detect the levels of anti-dsDNA antibodies in serum of experimental mice, and the anti-nuclear antibody kit was used to detect the levels of anti-nuclear antibodies. […]

CC(C)(C)NCc1cc(Nc2ccnc3cc(Cl)ccc23)c2c(c1O)CCCC2.O=P(O)(O)O.O=P(O)(O)O [Naphthoquine Phosphate, Naphthoquine phosphate]
levels of collagen-specific antibodies in serum of arthritic mice [1]: reduce | B cell activation, cytokine secretion and antibody production mediated by TLR signaling [2]: significantly inhibited | levels of anti-dsDNA antibodies in serum (anti-dsDNA antibodies): significantly reduced
